According to patent publication US20240150363A1, “COELENTERAZINE ANALOGUES” (Promega Corporation, priority 2022, published 2024):
Each block holds one molecule with its values, some of them ahead of it.

Experiments:
[1] = Systematic stability study of formulated Compound 6 reconstitution in buffers, LC-MS; assay type: physicochemical
Protocol: In addition to the stability experiments in Example 3, an additional systematic, controlled, and comprehensive stability study was conducted to evaluate the stability of formulated Compound 6 in various buffer formulation. Briefly, 4.2 μmol of Compound 6 was reconstituted in 1 mL of each buffer at the concentration and pH outlined in Table 1. Concentration and purity were determined by LC-MS. Briefly, 1 μL of sample was injected into an Eclipse RRHD C8 (50×2; 1 mm; 1.8 micron; λ=254 nm) with an aqueous mobile phase of 0.1% TFA in Nanopure water and an organic mobile phase of acetonitrile.

[2] = Stability of formulated Compound 6 (P-407 cake) in reconstitution buffers, LC-MS; assay type: physicochemical
Protocol: Experiments were conducted during development of embodiments herein to evaluate the stability of Compound 6 in various reconstitution buffer formulation. Briefly, 12 mg of Poloxamer 407 (P-407) was melted at 70˜75° C., and 4.2 μmol of Compound 6 was dissolved in 1 mL EtOH, followed by transferring the resulting solution to the melted P-407. The resulting mixture was rotated at 65˜75° C. to afford a homogeneous solution. The resulting solution was concentrated in vacuo and resuspended in 6 ml MQ water. 1 mL aliquots of the resuspended Compound 6 was then distributed into sample vials, frozen, and lyophilized to afford a formulated cake. Sample formulated cakes were then reconstituted in DPBS, HEPES, or Tris (pH 6.5, 7.5, or 8.0) buffers. Stability and purity were determined by LC-MS.

NLuc-HaloTag fusion [3] = molecular target: T1, NLuc-HaloTag fusion (Oplophorus gracilirostris, UniProt Q9GV45, A31E/A60N/A81I/F95D/I117V/K70R/L54V/L99Q/M102K/N193R/P142E/Q151K/Q38R/Q45L/V71I/Y165I); test: Total bioluminescence of purified NLuc-HaloTag fusion with substrate; assay type: biochemical; conditions: purified NLuc-HaloTag fusion 6 nM, substrate 20 μM, 1 min; compared to Furimazine and FluoroFurimazine
T1 construct: HaloTag (fusion partner)
T1 sequence (Q9GV45 other isoform, or with tags, fused parts or gaps with the stated changes): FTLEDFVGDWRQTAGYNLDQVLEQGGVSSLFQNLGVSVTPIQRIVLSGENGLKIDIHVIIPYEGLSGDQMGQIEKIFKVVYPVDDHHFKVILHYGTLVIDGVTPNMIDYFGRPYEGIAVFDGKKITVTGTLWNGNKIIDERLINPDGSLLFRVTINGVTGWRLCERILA
Protocol: (§1) Experiments were conducted during development of embodiments herein to evaluate the influence of Furimazine analogs on the intensity of bioluminescence produced by either purified NLuc-HaloTag fusion or purified chimera (i.e., HT178-cpNLuc-179, generated by insertion of cpNLuc into HaloTag). Briefly, purified NLuc-HaloTag fusion or chimera was diluted in TBS+0.1% BSA to a final concentration of 6 nM, treated with substrate at a final concentration of 20 μM, and incubated for 1 min before measurements of total bioluminescence on a GloMax® Discover plate reader (Promega; n=3) or measurements of bioluminescence intensity across 400-600 nm on an Infinite M1000 plate reader (Tecan; n=1).

[4] = test system: chimera (HT178-cpNLuc-179); test: Total bioluminescence of purified chimera with substrate; assay type: biochemical; conditions: purified chimera 6 nM, substrate 20 μM, 1 min; compared to Furimazine and FluoroFurimazine
Protocol: as §1

NLuc-HaloTag fusion [5] = molecular target: T1, NLuc-HaloTag fusion; test: Bioluminescence of HeLa cells transiently expressing NLuc-HaloTag fusion; assay type: cell-based; conditions: substrate 10 μM, 1 min, compared to Furimazine and FluoroFurimazine
Protocol: (§2) Additional experiments were conducted during development of embodiments herein to evaluate the influence of Furimazine analogs on the intensity of bioluminescence produced by transiently expressed NLuc-HaloTag fusion or chimera (i.e., HT178-cpNLuc-179, generated by insertion of cpNLuc into HaloTag). Briefly, HeLa cells diluted to 2.2×10^5 cells/mL in OptiMEM+2% serum were transfected with DNA encoding either NLuc-HaloTag fusion or chimera, plated in 96-well at 90 μL/well, and incubated overnight at 37° C.+5% CO2. Next day, cells were treated with substrate at a final concentration of 10 μM and incubated for 1 min before measurements of total bioluminescence on a GloMax® Discover plate reader (Promega; n=3) or measurements of bioluminescence intensity across 400-600 nm on an Infinite M1000 plate reader (Tecan; n=1).

[6] = test system: chimera (HT178-cpNLuc-179); test: Bioluminescence of HeLa cells transiently expressing chimera; assay type: cell-based; conditions: substrate 10 μM, 1 min, compared to Furimazine and FluoroFurimazine
Protocol: as §2

[7] = reconstituted using glycerol (2%)

- preservation based on purity and concentration data ([1]; in Tris (pH=8) buffer): well-preserved
- preservation based on purity and concentration data ([1]; in saline): well-preserved
- preservation based on purity and concentration data ([1]; in water): well-preserved
- precipitation / solubility ([1]; reconstituted using DPBS (pH 7.0)): visible precipitation
- precipitation / solubility ([1]; reconstituted using Tris (pH=6.5)): visible precipitation
- purity over a 6-hour period ([1]; reconstituted using Tris (pH=8)): greater than 90%
- purity over a 6-hour period ([1]; reconstituted using acetate (sodium acetate pH 5.2)): greater than 90%
- precipitation / solubility ([1]; reconstituted using bicarbonate (pH 9.5)): visible precipitation
- purity over a 6-hour period ([1]; reconstituted using citrate (pH 6.0)): greater than 90%
- precipitation / solubility [1, 7]: visible precipitation
- purity over a 6-hour period [1, 7]: greater than 90%
- purity over a 6-hour period ([1]; reconstituted using saline (0.9%)): greater than 90%
- purity over a 6-hour period ([1]; reconstituted using water): greater than 90%
- stability and purity ([2]; reconstituted in DPBS): lowest stability and purity
- purity after 3 h ([2]; reconstituted in HEPES): about 50%
- stability ([2]; reconstituted in HEPES): improved stability compared to DPBS
- purity after 3 h ([2]; reconstituted in Tris buffer): ~90%
- stability ([2]; reconstituted in Tris buffer): highest stability
Structure (SMILES): O=c1c(Cc2ccco2)nc2c(Cc3ccccc3F)[nH]c(-c3cccc(F)c3F)cn1-2 [Compound 6, 6-(2,3-difluorophenyl)-8-(2-fluorobenzyl)-2-(furan-2-ylmethyl)imidazo[1,2-a]pyrazin-3(7H)-one]

Structure (SMILES): Cc1ccc(Cc2nc3c(Cc4ccccc4F)[nH]c(-c4cccc(F)c4F)cn-3c2=O)o1 [Compound 10, 6-(2,3-difluorophenyl)-8-(2-fluorobenzyl)-2-((5-methylfuran-2-yl)methyl)imidazo[1,2-a]pyrazin-3(7H)-one]
- bioluminescence signal as a substrate (NLuc-HaloTag fusion [3]): significantly brighter signal
- bioluminescence signal as a substrate [4]: significantly brighter signal
- bioluminescence signal as a substrate (NLuc-HaloTag fusion [5]): significantly brighter signal
- bioluminescence signal as a substrate [6]: significantly brighter signal
